Reference: a compilation of properties of binary mixtures (doi:10.1016/j.jct.2010.07.014)

Assay: xn = mol fraction of the nth substance listed
Details: 101 kPa

CCCC[n+]1ccccc1.F[B-](F)(F)F + CO
Details	speed of sound [m/s]
293.15 K, x2 = 0.1574	1589.5
293.15 K, x2 = 0.2119	1580.3
293.15 K, x2 = 0.3113	1561.6
293.15 K, x2 = 0.3856	1545.2
293.15 K, x2 = 0.6109	1473.1
293.15 K, x2 = 0.7044	1424.8
293.15 K, x2 = 0.8043	1353.2
293.15 K, x2 = 0.9023	1256.7
303.15 K, x2 = 0.1058	1582.7
303.15 K, x2 = 0.2119	1558.3
303.15 K, x2 = 0.3856	1522.7
303.15 K, x2 = 0.5052	1491.6
303.15 K, x2 = 0.6109	1450.8
303.15 K, x2 = 0.8043	1330.3
303.15 K, x2 = 0.9023	1234.7
313.15 K, x2 = 0.1058	1552.6
313.15 K, x2 = 0.1574	1544.6
313.15 K, x2 = 0.2119	1535.7
313.15 K, x2 = 0.3113	1516.7
313.15 K, x2 = 0.3856	1500.1
313.15 K, x2 = 0.6109	1427.1
313.15 K, x2 = 0.7044	1378.5
313.15 K, x2 = 0.9512	1140.1
323.15 K, x2 = 0.211	1512.7
323.15 K, x2 = 0.3066	1494.7
323.15 K, x2 = 0.4111	1470.5
323.15 K, x2 = 0.5203	1440.9
323.15 K, x2 = 0.703	1363
323.15 K, x2 = 0.8081	1281.6
323.15 K, x2 = 0.9038	1172.9

CCCC[n+]1ccccc1.F[B-](F)(F)F + CCO
speed of sound [m/s]
Details	303.15 K	313.15 K	323.15 K
x2 = 0.072	1575.2	–	1529.8
x2 = 0.147	1555.4	1532.9	1511.8
x2 = 0.2229	–	1520.8	–
x2 = 0.3295	1514.6	1492.5	1470.4
x2 = 0.4136	1488.6	1466.5	–
x2 = 0.5006	1454.7	1433.1	1409.4
x2 = 0.5789	–	–	1374.8
x2 = 0.7074	1345.6	1329.7	1306.2
x2 = 0.8052	–	1256.1	1233.5
x2 = 0.8999	1199.4	1175.8	–
x2 = 0.948	1163.7	1135.3	1106.3
